pEC50, pKi: −log10 of the molar value.
Experiments:
FKBP12 = FKBP12 (Homo sapiens, UniProt P62942); assay: Ki test procedure: inhibition of peptidyl-prolyl isomerase (rotamase) activity, chymotrypsin-coupled assay; type: biochemical; conditions: apparent Ki, rotamase activity of FKBP, substrate N-succinyl-Ala-Ala-Pro-Phe-p-nitroanilide
Text: The inhibition of the prolyl peptidyl cis-trans isomerase activity of FKBP may be measured as an indicator of this affinity.
Inhibition of the peptidyl-prolyl isomerase (rotamase) activity of the inventive compounds can be evaluated by known methods described in the literature (Harding, et al., Nature, 1989, 341:758-760; Holt et al. J. Am. Chem. Soc., 115:9923-9938). These values are obtained as apparent Ki's and are presented in Table I. The cis-trans isomerization of an alanine-proline bond in a model substrate, N-succinyl-Ala-Ala-Pro-Phe-p-nitroanilide, is monitored spectrophotometrically in a chymotrypsin-coupled assay, which releases para-nitroanilide from the trans form of the substrate. The inhibition of this reaction caused by the addition of different concentrations of inhibitor is determined, and the data is analyzed as a change in first-order rate constant as a function of inhibitor concentration to yield the apparent Ki values.
In a plastic cuvette are added […] of ice cold assay buffer (25 mM HEPES, pH 7.8, 100 mM NaCl), […] of FKBP (2.5 mM in 10 mM Tris-Cl pH 7.5, 100 mM NaCl, 1 mM dithiothreitol), […] of chymotrypsin (50 mg/ml in 1 mM HCl) and […] of test compound at various concentrations in dimethyl sulfoxide. The reaction is initiated by the addition of 5 mL of substrate (succinyl-Ala-Phe-Pro-Phe-para-nitroanilide, 5 mg/mL in 2.35 mM LiCl in trifluoroethanol).
The absorbance at 390 nm versus time is monitored for 90 seconds using a spectrophotometer and the rate constants are determined from the absorbance versus time data files.

[1] = system: chick dorsal root ganglia; assay: Chick dorsal root ganglion cultures and neurite outgrowth; type: cell-based; conditions: Gallus gallus, 48 h; read-out: ED50 (the source's name)
Protocol: Dorsal root ganglia were dissected from chick embryos of ten day gestation. Whole ganglion explants were cultured on thin layer Matrigel-coated 12 well plates with Liebovitz L15 plus high glucose media supplemented with 2 mM glutamine and 10% fetal calf serum, and also containing 10 μM cytosine β-D arabinofuranoside (Ara C) at 37° C. in an environment containing 5% CO2. Twenty-four hours later, the DRGs were treated with various immunophilin ligands. Forty-eight hours after drug treatment, the ganglia were visualized under phase contrast or Hoffman Modulation contrast with a Zeiss Axiovert inverted microscope. Photomicrographs of the explants were made, and neurite outgrowth was quantitated. Neurites longer than the DRG diameter were counted as positive, with total number of neurites quantitated per each experimental condition. Three to four DRGs are cultured per well, and each treatment was performed in duplicate.
The data for these experiments for representative compounds are presented in the “ED50” column of Table I.

[2] = system: TH-positive dopaminergic neurons in the striatum; assay: MPTP model of Parkinson's Disease, TH immunostaining of striatum; type: in vivo; conditions: MPTP-lesioned CD1 mice (30 mg/kg i.p. for 5 days), compound 4 mg/kg s.c. for 10 days, striatum at 18 days
Protocol: MPTP lesioning of dopaminergic neurons in mice was used as an animal model of Parkinson's Disease. Four week old male CD1 white mice were dosed i.p. with 30 mg/kg of MPTP for 5 days. Test compounds (4 mg/kg), or vehicle, were administered s.c. along with the MPTP for 5 days, as well as for an additional 5 days following cessation of MPTP treatment. At 18 days following MPTP treatment, the animals were sacrificed and the striata were dissected and perfusion-fixed. Immunostaining was performed on saggital and coronal brain sections using anti-tyrosine hydroxylase […] to quantitate survival and recovery of dopaminergic neurons. In animals treated with MPTP and vehicle, a substantial loss of functional dopaminergic terminals was observed as compared to non-lesioned animals.

FKBP12, sequence (P62942 whole entry, species assumed): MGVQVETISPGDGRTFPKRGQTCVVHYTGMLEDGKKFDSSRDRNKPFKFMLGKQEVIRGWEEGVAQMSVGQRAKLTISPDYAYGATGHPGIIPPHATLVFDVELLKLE

SMILES	pKi (FKBP12)	pEC50 [1]	% Rescue, TH Immunostaining at 4 mg/kg, s.c. [2]
O=C(OC(CCc1ccccc1)CCc1ccccc1)C1CCCCN1S(=O)(=O)Cc1ccccc1 (stereo not drawn) [Compound 3, 1,5-Diphenyl-3-pentyl N-(α-toluenesulfonyl)-pipecolate]	6.97	9.88	–
O=C(OCCCCc1ccccc1)C1CCCCN1S(=O)(=O)Cc1ccccc1 (stereo not drawn) [Compound 2, 4-Phenyl-1-butyl 1-(α-tolylsulfonyl)-2-pipecolinate]	7.47	10.51	38.00%
O=C(OCCCc1cccnc1)[C@@H]1CCCN1S(=O)(=O)Cc1ccccc1 [Compound 1, 3-(3-Pyridyl)-1-propyl(2S)-N-(α-toluenesulfonyl)pyrrolidine-2-carboxylate]	7.14	11.70	44.31%
O=C(OCCCCc1ccccc1)C1CCCCN1S(=O)(=O)c1ccccc1 (stereo not drawn) [4-phenyl-1-butyl-N-(benzenesulfonyl) pipecolate]	–	–	29.22%

Source: patent US20030114492A1, “Method of using neurotrophic sulfonamide compounds” (priority 1997, published 2003)
